Measurements reported in ChEMBL document CHEMBL6134780, “Halogenated retinoid derivatives as dual RARα and RXRα modulators for treating acute promyelocytic leukemia cells” (Eur J Med Chem, 2024).
Values belong to the molecule of their own block, whether it stands above or below them. Calls of active or inactive are those of the source. No cut-off for these calls is given here.

Experiments:
NB-4 [1] = assay: Induction of cell differentiation in human NB4 cells at 0.5 uM incubated for 4 to 6 days by CD11b staining based flow cytometric analysis; type: functional; details: time 4-6 day
K562 [2] = assay: Induction of cell differentiation in human K562 cells at 0.5 uM incubated for 6 days by CD11b staining based flow cytometric analysis; type: functional; details: time 6.0 day
Jurkat = assay: Induction of cell differentiation in human Jurkat cells at 0.5 uM incubated for 6 days by CD11b staining based flow cytometric analysis; type: functional; details: time 6.0 day
NB-4 [3] = assay: Induction of cell differentiation in human NB4 cells assessed as NBT positive cells at 0.5 uM incubated for 6 days by Nitro Blue tetrazolium chloride based microscopic analysis (reference value: 0 %); type: functional; details: time 6 day
NB-4 [4] = assay: Cell cycle arrest in human NB4 cells assessed as accumulation of cells at G0/G1 phase at 0.5 uM incubated for 6 days for DAPI staining based flow cytometric analysis (reference value: 52 %); type: functional; details: time 6 day
NB-4 [5] = assay: Cell cycle arrest in human NB4 cells assessed as accumulation of cells at S phase at 0.5 uM incubated for 6 days for DAPI staining based flow cytometric analysis (reference value: 27 %); type: functional; details: time 6 day
NB-4 [6] = assay: Cell cycle arrest in human NB4 cells assessed as accumulation of cells at G2/M phase at 0.5 uM incubated for 6 days for DAPI staining based flow cytometric analysis (reference value: 15 %); type: functional; details: time 6 day
NB-4 [7] = assay: Cell cycle arrest in human NB4 cells assessed as accumulation of cells at sub-G1 phase at 0.5 uM incubated for 6 days for DAPI staining based flow cytometric analysis (reference value: 6 %); type: functional; details: time 6 day
K562 [8] = assay: Effect on cell cycle population in human K562 cells at 0.5 uM by DAPI staining based flow cytometric analysis; type: functional
NB-4 [9] = assay: Induction of cell death in M phase synchronized human NB4 cells assessed as reduction in mitotic cells at 0.5 uM preincubated for 4 days followed by release from thymidine block for 10 hrs by immunofluorescence staining based analysis; type: functional; details: time 106.0 hrs
NB-4 [10] = assay: Antiproliferative activity against human NB4 cells assessed as inhibition of cell viability at 0.1 uM incubated for 3 days by CCK8 assay relative to control; type: functional; details: NB-4, 72 h, time 3 day
ATRA-resistant NB4-LR2 = assay: Antiproliferative activity against human ATRA-resistant NB4-LR2 cells assessed as effect on cell viability up to 2 uM incubated for 3 days by CCK8 assay; type: functional, cell-based; details: time 3.0 day
NB-4 [11] = assay: Induction of apoptosis in human NB4 cells assessed as viable cells at 1 uM incubated for 24 hrs by Annexin V-FITC/PI staining based flow cytometric analysis (reference value: 92.36 %); type: functional; details: read-out: Activity
NB-4 [12] = assay: Induction of apoptosis in human NB4 cells assessed as early apoptotic cells at 1 uM incubated for 24 hrs by Annexin V-FITC/PI staining based flow cytometric analysis (reference value: 4.37 %); type: functional
NB-4 [13] = assay: Induction of apoptosis in human NB4 cells assessed as late apoptotic cells at 1 uM incubated for 24 hrs by Annexin V-FITC/PI staining based flow cytometric analysis (reference value: 3.20 %); type: functional
NB-4 [14] = assay: Induction of apoptosis in human NB4 cells assessed as necrotic cells at 1 uM incubated for 24 hrs by Annexin V-FITC/PI staining based flow cytometric analysis (reference value: 0.07 %); type: functional
[15] = Induction of apoptosis in human ATRA-resistant NB4-LR2 cells assessed as viable cells at 1 uM incubated for 24 hrs by Annexin V-FITC/PI staining based flow cytometric analysis (reference value: 87.30 %); type: functional; details: read-out: Activity
[16] = Induction of apoptosis in human ATRA-resistant NB4-LR2 cells assessed as early apoptotic cells at 1 uM incubated for 24 hrs by Annexin V-FITC/PI staining based flow cytometric analysis (reference value: 5.38 %); type: functional
[17] = Induction of apoptosis in human ATRA-resistant NB4-LR2 cells assessed as late apoptotic cells at 1 uM incubated for 24 hrs by Annexin V-FITC/PI staining based flow cytometric analysis (reference value: 7.23 %); type: functional
[18] = Induction of apoptosis in human ATRA-resistant NB4-LR2 cells assessed as necrotic cells at 1 uM incubated for 24 hrs by Annexin V-FITC/PI staining based flow cytometric analysis (reference value: 0.08 %); type: functional
K562 [19] = assay: Induction of apoptosis in human K562 cells assessed as viable cells at 2 uM incubated for 24 hrs by Annexin V-FITC/PI staining based flow cytometric analysis (reference value: 90.02 %); type: functional; details: read-out: Activity
K562 [20] = assay: Induction of apoptosis in human K562 cells assessed as early apoptotic cells at 2 uM incubated for 24 hrs by Annexin V-FITC/PI staining based flow cytometric analysis (reference value: 0.91 %); type: functional
K562 [21] = assay: Induction of apoptosis in human K562 cells assessed as late apoptotic cells at 2 uM incubated for 24 hrs by Annexin V-FITC/PI staining based flow cytometric analysis (reference value: 5.98 %); type: functional
K562 [22] = assay: Induction of apoptosis in human K562 cells assessed as necrotic cells at 2 uM incubated for 24 hrs by Annexin V-FITC/PI staining based flow cytometric analysis (reference value: 2.19 %); type: functional
HEK293T = assay: Agonist activity at full length RARalpha LBD R276E mutant (unknown origin) transfected in HEK293T cells co-transfected with pG5luc reporter and Renilla-luc at 1 uM incubated for 12 hrs by luciferase reporter gene assay; type: cell-based; details: Homo sapiens, filed as agonist
[23] = target: T1, Retinoic acid receptor gamma (Homo sapiens) (UniProt P13631); assay: Agonist activity at Gal4-fused full length human RARgamma LBD transfected in HEK293T cells co-transfected with pG5luc reporter and Renilla-luc assessed as transactivation by measuring maximal efficacy incubated for 12 hrs by dual luciferase reporter gene assay relative to control; type: cell-based; details: filed as agonist
T1 sequence (whole entry): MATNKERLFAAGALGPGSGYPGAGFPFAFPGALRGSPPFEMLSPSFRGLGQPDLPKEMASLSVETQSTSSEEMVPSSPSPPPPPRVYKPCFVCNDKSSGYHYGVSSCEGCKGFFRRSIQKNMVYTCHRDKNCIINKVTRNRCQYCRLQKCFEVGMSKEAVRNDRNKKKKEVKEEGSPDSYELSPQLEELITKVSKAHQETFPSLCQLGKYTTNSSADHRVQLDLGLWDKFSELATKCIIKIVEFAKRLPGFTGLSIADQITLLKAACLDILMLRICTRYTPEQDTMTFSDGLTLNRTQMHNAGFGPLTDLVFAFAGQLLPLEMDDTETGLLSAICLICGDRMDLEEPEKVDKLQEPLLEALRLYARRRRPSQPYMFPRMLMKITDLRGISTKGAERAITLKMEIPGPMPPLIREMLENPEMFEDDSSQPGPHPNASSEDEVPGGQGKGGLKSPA

Homo sapiens = species on record: Homo sapiens; assay: Binding affinity to N-terminal His-tagged human RARalpha LBD R276E mutant extracted from Escherichia coli BL21 (DE3) cells by ITC analysis
NB-4 [24] = assay: Cell cycle arrest in human NB4 cells assessed as accumulation of cells at G0/G1 phase at 1 uM incubated for 12 hrs by DAPI staining based flow cytometric analysis (reference value: 51 %); type: functional
NB-4 [25] = assay: Cell cycle arrest in human NB4 cells assessed as accumulation of cells at S phase at 1 uM incubated for 12 hrs by DAPI staining based flow cytometric analysis (reference value: 20 %); type: functional
NB-4 [26] = assay: Cell cycle arrest in human NB4 cells assessed as accumulation of cells at G2/M phase at 1 uM incubated for 12 hrs by DAPI staining based flow cytometric analysis (reference value: 26 %); type: functional
NB-4 [27] = assay: Cell cycle arrest in human NB4 cells assessed as accumulation of cells at sub-G1 phase at 1 uM incubated for 12 hrs by DAPI staining based flow cytometric analysis (reference value: 2 %); type: functional
[28] = Cell cycle arrest in human ATRA-resistant NB4-LR2 cells assessed as accumulation of cells at G0/G1 phase at 1 uM incubated for 12 hrs by DAPI staining based flow cytometric analysis (reference value: 42 %); type: functional
[29] = Cell cycle arrest in human ATRA-resistant NB4-LR2 cells assessed as accumulation of cells at S phase at 1 uM incubated for 12 hrs by DAPI staining based flow cytometric analysis (reference value: 12 %); type: functional
[30] = Cell cycle arrest in human ATRA-resistant NB4-LR2 cells assessed as accumulation of cells at G2/M phase at 1 uM incubated for 12 hrs by DAPI staining based flow cytometric analysis (reference value: 28 %); type: functional
[31] = Cell cycle arrest in human ATRA-resistant NB4-LR2 cells assessed as accumulation of cells at sub-G1 phase at 1 uM incubated for 12 hrs by DAPI staining based flow cytometric analysis (reference value: 18 %); type: functional
[32] = target: T2, Retinoic acid receptor alpha (Homo sapiens) (UniProt P10276); assay: Agonist activity at full length RARalpha LBD (unknown origin) transfected in HEK293T cells co-transfected with pG5luc reporter and Renilla-luc assessed as transactivation at 0.5 to 1 uM incubated for 12 hrs by luciferase reporter gene assay; type: cell-based; details: filed as agonist, dose 0.5-1 µM
T2 sequence (whole entry): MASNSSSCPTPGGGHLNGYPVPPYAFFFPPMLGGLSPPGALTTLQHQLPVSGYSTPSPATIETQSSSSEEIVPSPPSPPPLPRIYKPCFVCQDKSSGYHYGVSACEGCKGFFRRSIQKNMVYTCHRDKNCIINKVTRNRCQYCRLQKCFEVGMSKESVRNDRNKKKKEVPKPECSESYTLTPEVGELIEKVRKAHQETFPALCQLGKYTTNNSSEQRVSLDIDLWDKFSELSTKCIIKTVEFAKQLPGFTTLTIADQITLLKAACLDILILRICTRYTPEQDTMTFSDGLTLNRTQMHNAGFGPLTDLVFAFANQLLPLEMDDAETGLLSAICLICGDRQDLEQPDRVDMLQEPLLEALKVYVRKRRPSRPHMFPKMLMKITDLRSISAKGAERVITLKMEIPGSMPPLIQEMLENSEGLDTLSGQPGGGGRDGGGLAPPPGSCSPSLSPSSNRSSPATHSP

Emax [23]: 100%
Activity (Homo sapiens): inactive
Compound: CC1=C(/C=C/C(C)=C/C=C/C(C)=C/C(=O)O)C(C)(C)CCC1 [TRETINOIN]
Activity (NB-4 [1]): Active
Activity (K562 [2]): inactive
Activity (Jurkat): inactive
Activity (NB-4 [3]): 33%
Activity (NB-4 [4]): 64%
Activity (NB-4 [5]): 17%
Activity (NB-4 [6]): 16%
Activity (NB-4 [7]): 3%
Activity (K562 [8]): inactive
Activity (NB-4 [9]): Active
inhibition at 0.1 µM (NB-4 [10]): ~40%
Activity (ATRA-resistant NB4-LR2): inactive
viability at 1 µM (NB-4 [11]): 90.4%
Activity (NB-4 [12]): 3.11%
Activity (NB-4 [13]): 6.37%
Activity (NB-4 [14]): 0.13%
viability at 1 µM [15]: 88.6%
Activity [16]: 3.39%
Activity [17]: 7.92%
Activity [18]: 0.08%
viability at 2 µM (K562 [19]): 89.5%
Activity (K562 [20]): 1.04%
Activity (K562 [21]): 6.84%
Activity (K562 [22]): 2.01%
Activity (HEK293T): Active; Partial Impairment Observed
Activity (NB-4 [24]): 65%
Activity (NB-4 [25]): 10%
Activity (NB-4 [26]): 23%
Activity (NB-4 [27]): 2%
Activity [28]: 43%
Activity [29]: 11%
Activity [30]: 27%
Activity [31]: 19%

Activity [32]: Active
Compound: Cc1cc2c(cc1C(=O)/C(I)=C\c1ccc(C(=O)O)cc1)C(C)(C)CCC2(C)C
